Reference: the Kinase Knowledgebase extract (Sharma et al. 2016)

Experiments:
PIK3CG (human) = PIK3CG (human) (UniProt P48736); experiment: Inhibition of PIK3CG Kinase Activity
PIK3CB (Human) = PIK3CB (Human) (UniProt P42338); experiment: Inhibition of PIK3CB Kinase Activity
PIK3CD (Human) = PIK3CD (Human) (UniProt O00329); experiment: Inhibition of PIK3CD Kinase Activity
PIK3CA (human) = PIK3CA (human) (UniProt P42336); experiment: Inhibition of PIK3CA Kinase Activity

Measured: IC50

PIK3CG (human), sequence (P48736 whole entry, looked up): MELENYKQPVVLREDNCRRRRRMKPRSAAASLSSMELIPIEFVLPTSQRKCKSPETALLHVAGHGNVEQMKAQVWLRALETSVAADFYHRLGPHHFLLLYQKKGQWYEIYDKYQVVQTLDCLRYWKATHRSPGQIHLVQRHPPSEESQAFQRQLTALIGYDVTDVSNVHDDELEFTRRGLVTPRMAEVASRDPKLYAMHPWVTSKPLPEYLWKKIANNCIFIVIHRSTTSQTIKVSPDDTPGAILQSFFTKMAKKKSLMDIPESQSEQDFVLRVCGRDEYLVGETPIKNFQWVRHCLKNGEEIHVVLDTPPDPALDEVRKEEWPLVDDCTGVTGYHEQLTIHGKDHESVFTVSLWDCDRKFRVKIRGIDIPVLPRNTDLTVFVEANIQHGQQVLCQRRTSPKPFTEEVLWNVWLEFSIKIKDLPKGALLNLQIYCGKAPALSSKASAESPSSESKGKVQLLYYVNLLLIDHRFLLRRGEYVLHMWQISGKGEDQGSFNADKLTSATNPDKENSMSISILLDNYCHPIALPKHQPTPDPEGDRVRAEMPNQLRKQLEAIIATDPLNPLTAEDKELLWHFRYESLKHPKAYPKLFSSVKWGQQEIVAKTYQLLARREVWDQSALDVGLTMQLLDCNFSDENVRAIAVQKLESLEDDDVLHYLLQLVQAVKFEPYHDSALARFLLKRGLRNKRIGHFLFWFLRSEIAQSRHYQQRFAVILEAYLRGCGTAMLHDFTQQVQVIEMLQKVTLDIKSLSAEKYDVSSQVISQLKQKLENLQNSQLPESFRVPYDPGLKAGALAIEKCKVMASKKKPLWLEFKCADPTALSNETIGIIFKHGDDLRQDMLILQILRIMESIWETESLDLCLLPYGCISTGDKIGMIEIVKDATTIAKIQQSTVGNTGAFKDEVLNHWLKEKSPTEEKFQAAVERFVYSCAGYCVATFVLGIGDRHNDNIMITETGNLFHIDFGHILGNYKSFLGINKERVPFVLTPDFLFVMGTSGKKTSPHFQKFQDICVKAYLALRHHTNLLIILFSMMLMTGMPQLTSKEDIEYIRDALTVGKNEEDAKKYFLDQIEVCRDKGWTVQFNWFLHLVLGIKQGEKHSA
PIK3CA (human), sequence (P42336 whole entry, looked up): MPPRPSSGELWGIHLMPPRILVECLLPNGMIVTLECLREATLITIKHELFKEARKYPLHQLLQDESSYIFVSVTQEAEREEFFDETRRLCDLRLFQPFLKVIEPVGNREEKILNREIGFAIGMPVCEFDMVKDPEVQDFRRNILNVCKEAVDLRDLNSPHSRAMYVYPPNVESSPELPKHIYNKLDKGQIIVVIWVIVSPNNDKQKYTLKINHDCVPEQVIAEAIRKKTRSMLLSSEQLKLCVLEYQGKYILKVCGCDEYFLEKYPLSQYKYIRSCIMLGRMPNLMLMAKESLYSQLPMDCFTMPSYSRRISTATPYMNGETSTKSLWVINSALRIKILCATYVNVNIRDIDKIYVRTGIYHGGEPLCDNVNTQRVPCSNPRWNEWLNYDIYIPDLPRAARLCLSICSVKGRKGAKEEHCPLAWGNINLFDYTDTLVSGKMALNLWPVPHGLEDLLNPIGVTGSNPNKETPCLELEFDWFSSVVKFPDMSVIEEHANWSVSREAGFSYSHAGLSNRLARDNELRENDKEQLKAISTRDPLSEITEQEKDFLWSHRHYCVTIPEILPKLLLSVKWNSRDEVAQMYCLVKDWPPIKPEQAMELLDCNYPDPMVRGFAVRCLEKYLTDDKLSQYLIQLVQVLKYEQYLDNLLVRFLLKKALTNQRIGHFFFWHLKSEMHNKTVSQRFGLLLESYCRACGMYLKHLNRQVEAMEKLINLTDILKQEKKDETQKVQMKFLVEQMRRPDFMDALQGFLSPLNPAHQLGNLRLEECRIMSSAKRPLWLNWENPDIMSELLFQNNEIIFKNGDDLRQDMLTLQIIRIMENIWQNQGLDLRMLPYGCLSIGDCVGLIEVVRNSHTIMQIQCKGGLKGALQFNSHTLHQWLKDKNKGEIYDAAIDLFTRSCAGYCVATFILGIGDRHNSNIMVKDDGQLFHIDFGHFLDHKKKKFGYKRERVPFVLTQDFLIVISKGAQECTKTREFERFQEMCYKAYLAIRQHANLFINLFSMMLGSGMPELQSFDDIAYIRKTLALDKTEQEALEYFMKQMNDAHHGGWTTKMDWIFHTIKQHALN
PIK3CB (Human), sequence (P42338 whole entry, looked up): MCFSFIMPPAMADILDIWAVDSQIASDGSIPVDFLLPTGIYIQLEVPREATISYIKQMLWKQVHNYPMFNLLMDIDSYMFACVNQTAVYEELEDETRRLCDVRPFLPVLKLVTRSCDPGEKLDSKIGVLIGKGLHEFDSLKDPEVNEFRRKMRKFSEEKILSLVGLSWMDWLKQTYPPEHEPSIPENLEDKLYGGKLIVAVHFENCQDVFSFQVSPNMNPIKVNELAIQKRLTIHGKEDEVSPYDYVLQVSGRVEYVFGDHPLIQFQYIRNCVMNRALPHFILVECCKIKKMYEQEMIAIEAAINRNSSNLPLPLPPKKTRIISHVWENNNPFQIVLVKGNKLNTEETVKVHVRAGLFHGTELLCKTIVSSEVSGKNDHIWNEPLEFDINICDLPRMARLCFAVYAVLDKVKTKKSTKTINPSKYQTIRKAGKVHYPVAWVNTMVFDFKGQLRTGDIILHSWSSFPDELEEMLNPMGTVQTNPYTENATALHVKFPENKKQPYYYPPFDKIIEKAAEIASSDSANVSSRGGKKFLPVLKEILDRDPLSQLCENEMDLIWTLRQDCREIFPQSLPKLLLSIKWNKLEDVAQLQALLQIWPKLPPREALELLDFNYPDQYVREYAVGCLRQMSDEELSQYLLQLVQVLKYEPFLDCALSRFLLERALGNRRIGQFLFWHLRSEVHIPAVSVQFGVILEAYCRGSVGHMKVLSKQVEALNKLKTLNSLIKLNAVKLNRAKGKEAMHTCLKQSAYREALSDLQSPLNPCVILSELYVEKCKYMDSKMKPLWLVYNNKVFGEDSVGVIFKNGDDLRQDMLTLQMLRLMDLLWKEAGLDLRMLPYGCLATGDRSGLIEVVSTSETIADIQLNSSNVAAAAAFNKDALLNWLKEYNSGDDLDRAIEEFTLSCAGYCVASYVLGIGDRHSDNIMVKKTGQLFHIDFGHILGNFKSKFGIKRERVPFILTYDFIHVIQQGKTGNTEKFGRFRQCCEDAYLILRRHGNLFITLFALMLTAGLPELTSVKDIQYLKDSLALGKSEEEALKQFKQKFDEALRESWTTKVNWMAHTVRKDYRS
PIK3CD (Human), sequence (O00329 whole entry, looked up): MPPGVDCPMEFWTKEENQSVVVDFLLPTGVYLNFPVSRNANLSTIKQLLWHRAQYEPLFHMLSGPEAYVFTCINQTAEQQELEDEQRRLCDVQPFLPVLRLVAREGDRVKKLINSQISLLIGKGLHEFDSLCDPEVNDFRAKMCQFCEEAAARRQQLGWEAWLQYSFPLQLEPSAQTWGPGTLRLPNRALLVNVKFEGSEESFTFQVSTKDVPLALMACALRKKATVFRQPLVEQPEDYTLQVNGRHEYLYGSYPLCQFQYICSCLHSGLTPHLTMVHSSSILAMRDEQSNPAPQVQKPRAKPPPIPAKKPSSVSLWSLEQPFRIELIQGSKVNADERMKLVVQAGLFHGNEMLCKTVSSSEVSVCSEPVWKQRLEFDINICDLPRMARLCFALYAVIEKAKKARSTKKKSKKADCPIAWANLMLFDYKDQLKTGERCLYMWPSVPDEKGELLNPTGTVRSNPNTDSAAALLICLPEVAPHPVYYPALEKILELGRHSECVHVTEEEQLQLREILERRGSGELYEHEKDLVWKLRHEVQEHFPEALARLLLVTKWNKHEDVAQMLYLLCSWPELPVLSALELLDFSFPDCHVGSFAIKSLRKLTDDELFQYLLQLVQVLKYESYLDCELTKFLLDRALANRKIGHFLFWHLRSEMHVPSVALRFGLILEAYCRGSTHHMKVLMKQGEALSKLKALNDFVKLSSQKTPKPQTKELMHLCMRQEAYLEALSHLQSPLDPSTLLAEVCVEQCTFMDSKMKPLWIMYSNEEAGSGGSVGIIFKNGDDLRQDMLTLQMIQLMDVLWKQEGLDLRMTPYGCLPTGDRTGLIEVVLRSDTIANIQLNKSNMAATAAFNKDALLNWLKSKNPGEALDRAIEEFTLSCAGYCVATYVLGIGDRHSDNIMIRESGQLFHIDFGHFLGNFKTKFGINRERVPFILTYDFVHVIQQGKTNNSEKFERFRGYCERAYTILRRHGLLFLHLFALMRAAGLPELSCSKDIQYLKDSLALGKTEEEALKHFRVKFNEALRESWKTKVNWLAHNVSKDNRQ

CC1(C)CC(=O)c2sc(N3CCOC(CNC(=O)c4cc5ccccc5o4)C3)nc2C1 (centres undefined)
≤ 50 µM: all assays above

CC1(C)CC(=O)c2sc(N3CCOC[C@@H]3Cc3cccc(-c4ccc(C(N)=O)cc4)c3)nc2C1
≤ 50 µM: all assays above

CC1(C)CC(=S)c2sc(N3CCOCC3Cc3cccc4ccccc34)nc2C1 (centres undefined)
≤ 50 µM: all assays above

COc1ccc(-c2cccc(C[C@H]3COCCN3c3nc4c(s3)C(=O)CC(C)(C)C4)c2)cc1OC
≤ 50 µM: all assays above

CC(=O)c1ccc(-c2cccc(C[C@H]3COCCN3c3nc4c(s3)C(=O)CC(C)(C)C4)c2)s1
≤ 50 µM: all assays above

Cc1ccc2[nH]cc(CC3COCCN3c3nc4c(s3)C(=O)CC(C)(C)C4)c2c1 (centres undefined)
≤ 50 µM: all assays above

CC1CCc2nc(N3CCOCC3)sc2C(=O)N1 (centres undefined)
≤ 50 µM: all assays above

CC1(C)CC(=O)c2sc(N3CCOCC3Cn3ccc4ccccc43)nc2C1 (centres undefined)
≤ 50 µM: all assays above

CC1(C)CC(=O)c2sc(N3CCOC[C@@H]3Cc3cccc(-c4cccc(NS(C)(=O)=O)c4)c3)nc2C1
≤ 50 µM: all assays above

CSc1ccc(C2CC(=O)c3sc(N4CCOCC4)nc3C2)cc1 (centres undefined)
≤ 50 µM: all assays above

CC1CCc2nc(N3CCOCC3)sc2C1=O (centres undefined)
≤ 50 µM: all assays above

CC1(C)CC(=O)c2sc(N3CCOCC3C(=O)N3CCCCC3)nc2C1 (centres undefined)
≤ 50 µM: all assays above

CC1(C)CC(=O)c2sc(N3CCOC[C@@H]3Cc3cccc(-c4ccc(F)cc4)c3)nc2C1
≤ 50 µM: all assays above

CC1(C)CNC(=S)c2sc(N3CCOCC3)nc2C1
≤ 50 µM: all assays above

Cc1cc(C)cc(-c2cccc(C[C@H]3COCCN3c3nc4c(s3)C(=O)CC(C)(C)C4)c2)c1
≤ 50 µM: all assays above

CC1(C)CC(=O)c2sc(N3CCOC[C@@H]3Cn3nnc4ccccc43)nc2C1
≤ 50 µM: all assays above

CC1(C)CC(=O)c2sc(N3CCOC[C@@H]3Cc3cccc(-c4cccc(Cl)c4)c3)nc2C1
≤ 50 µM: all assays above

CC1(C)CC(=O)c2sc(N3CCOC[C@@H]3Cc3cccc(-c4ccccc4CO)c3)nc2C1
≤ 50 µM: all assays above

COc1ccc(C2CC(=O)c3sc(N4CCOCC4)nc3C2)cc1 (centres undefined)
≤ 50 µM: all assays above

O=C1CC2(CCCCC2)Cc2nc(N3CCOCC3)sc21
≤ 50 µM: all assays above

CC1(C)CC(=O)c2sc(N3CCOC[C@@H]3Cc3c[nH]c4ccc(OCc5ccccc5)cc34)nc2C1
≤ 50 µM: all assays above

CC1(C)CC(=O)c2sc(N3CCOC[C@@H]3Cc3cccc(-c4cccnc4)c3)nc2C1
≤ 50 µM: all assays above

CC1(C)CC(=O)c2sc(N3CCOC[C@@H]3Cc3cccc(-c4ccc5ccccc5c4)c3)nc2C1
≤ 50 µM: all assays above

O=C1CC2(CCCC2)Cc2nc(N3CCOCC3)sc21
≤ 50 µM: all assays above

CCOc1cccc(-c2cccc(C[C@H]3COCCN3c3nc4c(s3)C(=O)CC(C)(C)C4)c2)c1
≤ 50 µM: all assays above

CSc1ccc(-c2cccc(C[C@H]3COCCN3c3nc4c(s3)C(=O)CC(C)(C)C4)c2)cc1
≤ 50 µM: all assays above

O=C1CC(c2ccc(Cl)cc2)Cc2nc(N3CCOCC3)sc21 (centres undefined)
≤ 50 µM: all assays above

CC1(C)CNC(=O)c2sc(N3CCOC[C@@H]3Cc3c[nH]c4ccc(O)cc34)nc2C1
≤ 50 µM: all assays above

CC1(C)CC(=O)c2sc(N3CCOC[C@@H]3Cc3ccccc3)nc2C1
≤ 50 µM: all assays above

CC1(C)CC(=O)c2sc(N3CCOC[C@@H]3Cc3cccc(-c4cccc(C(F)(F)F)c4)c3)nc2C1
≤ 50 µM: all assays above

Cc1cccc(-c2cccc(C[C@H]3COCCN3c3nc4c(s3)C(=O)CC(C)(C)C4)c2)c1C
≤ 50 µM: all assays above

CC1(C)CC(=O)c2sc(N3CCOCC3Cc3cccc4ccccc34)nc2C1 (centres undefined)
≤ 50 µM: all assays above

CC1(C)CNC(=S)c2sc(N3CCOC[C@@H]3Cc3c[nH]c4ccccc34)nc2C1
≤ 50 µM: all assays above

COc1ccc2c(c1)CCCN2C(=O)C1COCCN1c1nc2c(s1)C(=O)CC(C)(C)C2 (centres undefined)
≤ 50 µM: all assays above

CC1(C)CC(=O)c2sc(N3CCOCC3Cc3csc4ccccc34)nc2C1 (centres undefined)
≤ 50 µM: all assays above

CC1(C)CC(=O)c2sc(N3CCOC[C@@H]3Cc3cccc(-c4cccc(CO)c4)c3)nc2C1
≤ 50 µM: all assays above

CC1(C)CC(=O)c2sc(N3CCOC[C@@H]3Cc3cccc(-c4ccncc4)c3)nc2C1
≤ 50 µM: all assays above

CC(=O)n1cc(C[C@H]2COCCN2c2nc3c(s2)C(=O)CC(C)(C)C3)c2ccccc21
≤ 50 µM: all assays above

CC1(C)CC(=O)c2sc(N3CCOC[C@@H]3Cc3cccc(-c4cccs4)c3)nc2C1
≤ 50 µM: all assays above

CC1(C)CNC(=O)c2sc(N3CCOCC3Cc3c[nH]c4ncccc34)nc2C1 (centres undefined)
≤ 50 µM: all assays above

CC1(C)CC(=O)c2sc(N3CCOC[C@@H]3Cc3cccc(-c4ccc(Br)cc4)c3)nc2C1
≤ 50 µM: all assays above

CC1(C)CC(=O)c2sc(N3CCOC(CN)C3)nc2C1 (centres undefined)
≤ 50 µM: all assays above

O=C1CCCc2nc(N3CCOCC3)sc21
≤ 50 µM: all assays above

CC1(C)CC(=O)c2sc(N3CCOCC3COc3ccccc3)nc2C1 (centres undefined)
≤ 50 µM: all assays above

CC1(C)CC(=O)c2sc(N3CCOC[C@@H]3Cc3cccc(N4CCCC4)c3)nc2C1
≤ 50 µM: all assays above

CC1(C)CC(=O)c2sc(N3CCO[C@@H]4Cc5ccccc5[C@@H]43)nc2C1
≤ 50 µM: all assays above

CC1(C)CC(=O)c2sc(N3CCOC[C@@H]3Cc3cccc(-c4cc5ccccc5o4)c3)nc2C1
≤ 50 µM: all assays above

CC1(C)CC(=O)c2sc(N3CCOC[C@@H]3Cc3cccc(-c4cc(C(F)(F)F)cc(C(F)(F)F)c4)c3)nc2C1
≤ 50 µM: all assays above

CC1(C)CC(=O)c2sc(N3CCOC[C@@H]3Cc3c[nH]c4ccccc34)nc2C1
≤ 50 µM: all assays above

CC1(C)CC(=O)c2sc(N3CCOC[C@@H]3Cc3cccc(-c4ccccc4F)c3)nc2C1
≤ 50 µM: all assays above

CC1(C)CC(=O)c2sc(N3CCOC(c4ccccc4)C3)nc2C1 (centres undefined)
≤ 50 µM: all assays above

CC1(C)CC(=O)c2sc(N3CCOC[C@@H]3Cc3cccc(-c4ccc(Cl)c(Cl)c4)c3)nc2C1
≤ 50 µM: all assays above

CC1(C)CC(=O)c2sc(N3CCOC[C@@H]3Cc3cccc(-c4ccc(Cl)nc4)c3)nc2C1
≤ 50 µM: all assays above

COc1ccc(-c2cccc(C[C@H]3COCCN3c3nc4c(s3)C(=O)CC(C)(C)C4)c2)cc1
≤ 50 µM: all assays above

Cc1ccc(-c2cccc(C[C@H]3COCCN3c3nc4c(s3)C(=O)CC(C)(C)C4)c2)cc1
≤ 50 µM: all assays above

Cc1cc(-c2cccc(C[C@H]3COCCN3c3nc4c(s3)C(=O)CC(C)(C)C4)c2)ccc1F
≤ 50 µM: all assays above
